Assay results published in patent publication US20070042448A1, “Use of enzymes from Helicobacter pylori as therapeutical targets” (priority 2005, published 2007).
≈ marks a conversion by molar mass, not a printed value. Like-named read-outs stand apart in the source and are kept apart here. Positions of bridges follow the written chain, without caps; N, C: chain ends. Non-standard residues stand in square brackets, D forms with d. Residues, ends and D or L forms follow the SMILES beside them. *: point of attachment. Ileψ(thiazoline)Cys = CC[C@H](C)[C@H](N)C1=N[C@H](C(=O)*)CS1; dOrn = NCCC[C@@H](N)C(=O)O

Assays:
human Nod2 = target: T1, human Nod2 (Homo sapiens, UniProt Q9HC29); assay: Nod2-dependent NF-κB luciferase activation in transfected HEK293T cells; assay type: cell-based; details: HEK293T cells transfected with hNod2 and luciferase reporter; FIG. 4D
T1 construct: host or cells: HEK293T
T1 sequence (Q9HC29 whole entry): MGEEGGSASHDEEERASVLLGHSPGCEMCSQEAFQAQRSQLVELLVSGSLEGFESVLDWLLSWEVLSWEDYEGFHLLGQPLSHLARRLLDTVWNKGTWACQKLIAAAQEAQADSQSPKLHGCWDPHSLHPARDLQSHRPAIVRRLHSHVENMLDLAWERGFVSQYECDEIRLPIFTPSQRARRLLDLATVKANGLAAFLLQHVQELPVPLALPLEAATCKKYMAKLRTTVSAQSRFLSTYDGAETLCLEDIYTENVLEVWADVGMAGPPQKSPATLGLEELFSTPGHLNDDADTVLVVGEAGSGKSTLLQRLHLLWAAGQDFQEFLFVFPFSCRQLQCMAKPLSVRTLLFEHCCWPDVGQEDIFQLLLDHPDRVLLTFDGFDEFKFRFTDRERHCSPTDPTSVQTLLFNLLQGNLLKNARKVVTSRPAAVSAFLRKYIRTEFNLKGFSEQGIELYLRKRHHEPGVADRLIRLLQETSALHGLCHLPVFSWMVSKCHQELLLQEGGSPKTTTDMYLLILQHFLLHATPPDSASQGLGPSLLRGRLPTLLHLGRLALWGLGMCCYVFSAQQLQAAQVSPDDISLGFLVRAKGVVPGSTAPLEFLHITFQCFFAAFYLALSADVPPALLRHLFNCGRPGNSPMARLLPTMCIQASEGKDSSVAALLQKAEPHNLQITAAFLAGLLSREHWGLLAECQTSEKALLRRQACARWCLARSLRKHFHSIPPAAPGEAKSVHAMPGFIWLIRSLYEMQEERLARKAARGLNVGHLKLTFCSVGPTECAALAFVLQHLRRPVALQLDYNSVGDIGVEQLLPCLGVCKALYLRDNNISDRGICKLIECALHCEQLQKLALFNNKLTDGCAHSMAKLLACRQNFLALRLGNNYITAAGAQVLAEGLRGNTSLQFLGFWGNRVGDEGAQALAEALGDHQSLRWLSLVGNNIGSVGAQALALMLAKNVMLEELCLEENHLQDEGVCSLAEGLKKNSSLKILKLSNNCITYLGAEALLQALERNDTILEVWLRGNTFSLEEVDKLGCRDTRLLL
Excerpt: Expression Plasmids, Transient Transfections and NF-κB Activation Assays. The expression plasmid for FLAG-tagged hNod1 was from Gabriel Nuñez (University of Michigan Medical School, Ann Arbor, Mich.) and has been described previously. The expression plasmid for hNod2 was from Gilles Thomas (Foundation Jean Dausset/CEPH, Paris, France). HEK293T cells were used for transfections as described previously. Synergistic activation of NF-κB by PGs, muramyl peptides, and related compounds in cells over-expressing Nod1 or Nod2 was studied as described by Inohara et al.. Briefly, HEK293T cells were transfected overnight with 10 ng of hNod1 or 30 ng of hNod2 plus 75 ng of Ig luciferase reporter plasmid. PG samples (0.1 μg/ml) were digested with 0.25 μg/μl mutanolysin. At the same time, 0.3 μg of PG preparations or 10 pmol of muramyl-peptides were added to the cell culture medium, and synergistic NF-κB-dependent luciferase activation was measured after 24 h of co-incubation. NF-κB-dependent luciferase assays were performed in duplicate, and data reported represent at least three independent experiments. Data was standardized with positive controls: M-dipeptide for hNod2 and M-tripeptide for hNod1. hNod1 and hNod2 were activated with H. pylori PG (0.3 μg/ml) digested with M1 or Slt70 as previously described.

H. pylori strain 26695 [1] = assay: Minimum inhibitory concentration (MIC) on plates, parental strain; assay type: cell-based, Helicobacter pylori
Excerpt: (§1) Minimal Inhibitory Concentration (MIC). To determine the MIC for amoxicillin, suspensions of H. pylori estimated to contain […] bacteria/ml (OD600 nm of 0.1) were serially diluted and grown on plates containing various concentrations of amoxicillin. The MIC was defined as the amoxicillin concentration leading to a decrease of 3 log of CFU/ml as compared to growth without amoxicillin.
(§2) To determine the MIC of different antibiotics, suspensions of H. pylori estimated to contain 10^8 bacteria/ml (OD600 nm of 0.1) were serially diluted and grown on plates containing various concentrations of amoxicillin. The MIC was defined as the minimal concentration leading to a decrease of 3 log of CFU/ml as compared to growth without antibiotic. Minimum bactericidal concentration (MBC) for amoxicillin was done as follow. Bacteria were grown in increasing concentrations of amoxicillin in liquid culture and OD600 nm was monitored. After 18 hours, CFU/ml counts were determined for each amoxicillin concentration. MBC was defined as the concentration leading to a 3 log decrease of CFU/ml as compared as growth without amoxicillin.

[2] = test system: H. pylori 26695 amiA mutant; assay: Minimum inhibitory concentration (MIC) on plates, amiA mutant; assay type: cell-based, Helicobacter pylori
Excerpt: as §1, §2

[3] = test system: H. pylori 26695 amiA mutant; assay: Morphological transition into coccoid forms after amoxicillin (scanning electron microscopy), amiA mutant; assay type: cell-based, Helicobacter pylori
Method: (§3) Some stress signals, including amoxicillin treatment, can induce the morphological transition into coccoid forms. The inventors investigated the response of the ami A mutant to amoxicillin. First the inventors determined the MIC of amoxicillin: it was identical for the ami A mutant and the parental strain 26695 (0.06 μg/ml). After overnight culture, 10 μg/ml of amoxicillin was added to the media and after three hours of antibiotic treatment bacteria were observed by scanning electron microscopy. […] Thus, AmiA is required both for PG modifications and morphological transition.
(§4) For scanning electron microscopy (SEM), samples were washed in PBS, prefixed in 2.5% glutaraldehyde in 0.1M cacodylate buffer for 30 minutes and then rinsed in 0.2M cacodylate buffer. After post-fixation in 1% osmium tetraoxide (in 0.2M cacodylate buffer), bacteria were dehydrated in a series of ethanol concentrations. Specimens were critical-point dried using carbon dioxide, then coated with gold and examined with a JEOL JSM-6700F SEM.

[4] = test system: H. pylori 26695 amiA− complemented; assay: Minimum bactericidal concentration (MBC) in liquid culture, complemented amiA mutant; assay type: cell-based, Helicobacter pylori
Method: as §2

H. pylori strain 26695 [5] = assay: Morphological transition into coccoid forms after amoxicillin (scanning electron microscopy), parental strain; assay type: cell-based, Helicobacter pylori; details: 3-4 h exposure to amoxicillin (10 μg/ml) after 18 h of growth without antibiotic
Method: as §3, §4

H. pylori strain 26695 [6] = assay: Minimum bactericidal concentration (MBC) in liquid culture, parental strain; assay type: cell-based, Helicobacter pylori
Method: as §2

[7] = test system: H. pylori 26695 amiA− complemented; assay: Minimum inhibitory concentration (MIC) on plates, complemented amiA mutant; assay type: cell-based; details: Helicobacter pylori, read-out: MIC (μg/ml of amoxicillin)
Method: as §2

[8] = test system: H. pylori 26695 amiA mutant; assay: Minimum bactericidal concentration (MBC) in liquid culture, amiA mutant; assay type: cell-based, Helicobacter pylori; details: 18 hours, maximum concentration tested 32 μg/ml
Method: as §2

[9] = Helicobacter pylori, other antibiotics, read-out: MIC

Structure (SMILES): CC(=O)NC1C(OC2C(CO)OC(O)C(NC(C)=O)C2OC(C)C(=O)NC(C)C(=O)NC(CCC(=O)O)C(=O)O)OC(CO)C(O)C1O [GM-dipeptide, N-acetyl-D-glucosminyl-β(1,4)-N-acetylmuramyl-L-Ala-D-Glu]
- Nod2-dependent activation of NF-κB (human Nod2): detected via Nod2 in a dose dependent manner

Structure (SMILES): Cc1ncc([N+](=O)[O-])n1CCO [Metronidazole]
- MIC (H. pylori strain 26695 [1]; [9]): 1 µg/mL (≈ 5.84 µM)
- MIC ([2]; Helicobacter pylori): 1 µg/mL (≈ 5.84 µM)

Structure (SMILES): CCn1cc(C(=O)O)c(=O)c2ccc(C)nc21 [Nalidixic acid]
- MIC (H. pylori strain 26695 [1]; [9]): 30 µg/mL (≈ 129 µM)
- MIC ([2]; Helicobacter pylori): 30 µg/mL (≈ 129 µM)

Structure (SMILES): COc1cc(Cc2cnc(N)nc2N)cc(OC)c1OC [Trimethroprime]
- MIC (H. pylori strain 26695 [1]; other antibiotics): >100 µg/mL
- MIC ([2]; 26695 amiA mutant, other antibiotics): >100 µg/mL

Structure (SMILES): CC[C@H](C)[C@H](N)C1=N[C@H](C(=O)N[C@@H](CC(C)C)C(=O)N[C@H](CCC(=O)O)C(=O)N[C@H](C(=O)N[C@H]2CCCCNC(=O)[C@H](CC(N)=O)NC(=O)[C@@H](CC(=O)O)NC(=O)[C@H](Cc3cnc[nH]3)NC(=O)[C@@H](Cc3ccccc3)NC(=O)[C@H]([C@@H](C)CC)NC(=O)[C@@H](CCCN)NC2=O)[C@@H](C)CC)CS1 [Bacitracin] ({Ileψ(thiazoline)Cys}-L[dE]IK[dOrn]I[dF]H[dD]N; lactam 4-C)
- MIC (H. pylori strain 26695 [1]; [9]): > 1000 µg/mL
- MIC ([2]; Helicobacter pylori): > 1000 µg/mL

Structure (SMILES): CC1(C)S[C@@H]2[C@H](NC(=O)[C@H](N)c3ccc(O)cc3)C(=O)N2[C@H]1C(=O)O [amoxicillin]
- Morphology of amiA mutant after amoxicillin ([3]; 10 μg/ml amoxicillin, three hours, after overnight culture, scanning electron microscopy): formed chains of spherical bacteria
- % of coccoids (includes U and donut forms) ([3]; 26695 amiA−, 3-4 h exposure to amoxicillin (10 μg/ml) after 18 h of growth without antibiotic): 32.60%
- Coccoid formation of amiA mutant after amoxicillin ([3]; exposure to 100 times its MIC): still induced coccoid formation
- Ratio MBC/MIC [4]: 2
- MCB (μg/ml of amoxicillin) ([4]; liquid culture, 18 hours): 0.250 µg/mL
- MIC (H. pylori strain 26695 [1]; Helicobacter pylori, 3 log decrease of CFU/ml, read-out: MIC (μg/ml of amoxicillin)): 0.06 µg/mL
- % of coccoids (includes U and donut forms) (H. pylori strain 26695 [5]): 56.64%
- Ratio MBC/MIC (H. pylori strain 26695 [6]): 1
- MCB (μg/ml of amoxicillin) (H. pylori strain 26695 [6]; liquid culture, 18 hours, 3 log decrease of CFU/ml): 0.06 µg/mL
- MIC [7]: 0.125 µg/mL
- MIC ([2]; Helicobacter pylori, read-out: MIC (μg/ml of amoxicillin)): 0.06 µg/mL
- MCB (μg/ml of amoxicillin) [8]: >32 µg/mL

Structure (SMILES): CN[C@H](CC(C)C)C(=O)N[C@H]1C(=O)N[C@@H](CC(N)=O)C(=O)N[C@H]2C(=O)N[C@H]3C(=O)N[C@H](C(=O)N[C@H](C(=O)O)c4cc(O)cc(O)c4-c4cc3ccc4O)[C@H](O)c3ccc(c(Cl)c3)Oc3cc2cc(c3O[C@@H]2O[C@H](CO)[C@@H](O)[C@H](O)[C@H]2O[C@H]2C[C@](C)(N)[C@H](O)[C@H](C)O2)Oc2ccc(cc2Cl)[C@H]1O [Vancomycin]
- MIC (H. pylori strain 26695 [1]; [9]): > 1000 µg/mL
- MIC ([2]; Helicobacter pylori): > 1000 µg/mL

Structure (SMILES): [H]/N=C(/N)N[C@H]1[C@H](O)[C@@H](O)[C@H](O[C@@H]2O[C@@H](C)[C@](O)(C=O)[C@H]2O[C@@H]2O[C@@H](CO)[C@H](O)[C@@H](O)[C@@H]2NC)[C@@H](N/C(N)=N\[H])[C@@H]1O [Streptomycin]
- MIC (H. pylori strain 26695 [1]; [9]): 1 µg/mL (≈ 1.72 µM)
- MIC ([2]; Helicobacter pylori): 1 µg/mL (≈ 1.72 µM)
